The values below come from patent US20160051491A1, “NOVEL USE OF PINOSYLVIN FOR ANGIOGENESIS PROMOTION” (INDUSTRY-ACADEMIC COOPERATION FOUNDATION, DANKOOK UNIVERSITY, priority 2013, published 2016).

The structures appear in SMILES notation.

The subject of one test is JNK. In words: Western blotting of p-JNK in BAECs. To be noted: 1 pM pinosylvin, 0 to 60 minutes, serum-depleted BAECs, FIG. 2. Format: cell-based, Bovine. How it is done:
(§1) The BAECs were grown to confluency in 20% FBS-DMEM, washed with ice-cold PBS, scraped in 250 μL RIPA buffer (50 mM Tris, pH 7.5, 150 mM NaCl, 1% NP-40, 0.5% sodium deoxycholate, and 0.1% SDS), and solubilized for 15 minutes to prepare the cell lysates. All the solubilization procedures were performed at 4° C., and the protein content of the soluble cell lysates was measured using a Bio-Rad DC assay kit (Bio-Rad). The solution lysates (10 μg each) were resolved by SDS-PAGE. The resolved protein bands were then transferred to a polyvinylidene difluoride (PVDF) membrane (Bio-Rad) and probed with p-ERK (cell signaling), p-p38 MAP kinase (cell signaling), p-JNK (cell signaling), p-eNOS (cell signaling), p-Akt (cell signaling) and caspase-3 (cell signaling) for 1 hour to overnight. The membranes were then incubated with a secondary antibody at room temperature for 1 hour, where goat anti-rabbit IgG conjugated to alkaline phosphatase was used as a secondary antibody. Finally, the results were confirmed using a chemiluminescent detection method.
Background: Immunoblotting shows a protein as a band on a membrane.

The test system of test [1] is Bovine aortic endothelial cells (BAECs). The experiment in a line: Serum starvation-induced apoptosis of endothelial cells (apoptotic cell count under microscope). Format: cell-based. How it is done: (§2) Bovine aortic endothelial cells (BAECs) were obtained from the descending thoracic aortas, and maintained in a growth medium (DMEM (1 g/L glucose, Life technologies, Inc.) containing 20% fetal bovine […] (FBS, Atlanta Biologicals) without antibiotics) at 37° C. in 5% CO2. The number of cells used for used in this study was between 3 generations and 10 generations, and they were allowed to grow in untreated culture dishes. Before drug treatment, BAECs were grown to confluency in a 5% CO2 incubator with growth media containing 50 μg/mL penicillin and 50 μg/mL streptomycin. The cells were then starved for between 4 hours and 24 hours in starvation media (DMEM supplemented with 0.5% FBS and 50 μg/mL penicillin and 50 μg/mL streptomycin).
[…] Since pinosylvin is not commercially available, it was synthesized as described (Park et al., Cell Physiol Biochem. 2011; 27(3-4): 353-62.). […]
Confluent BAECs were starved for more than 4 hours, treated with pinosylvin, and then incubated for an additional period of time (0 hours, 12 hours, 24 hours, and 48 hours) for the evaluation of time-dependent changes in apoptosis. […] For quantification, the present inventors counted the number of apoptotic cells in the same visual field.

The test system is the same in test [2]. The experiment in a line: Endothelial tube formation on ECM gel. It counts as cell-based. The settings on record: FIG. 4B. How it is done: ECM gel (Cell Biolabs Inc.) was thawed overnight at 4° C. Then, the thawed gel 50 μL was added into each well of the 96-well plates. To form a gel, the 96-well plates were incubated at 37° C. for 1 hour. Then, the BAEC suspension (1.5×10^4 cells/100 μL) containing no pinosylvin, 1 pM pinosylvin, or 1 pM pinosylvin with 2.5 mM L-NAME, in DMEM, respectively, was added into a gel and placed in a 5% CO2 incubator at 37° C. for 12 hours to 18 hours. Then, the endothelial cells were observed under a microscope to confirm tube formation.

For a further test, the system named is caspase-3. The experiment in a line: Caspase-3 cleavage (Western blot) and caspase-3 colorimetric activity (Ac-DEVD-pNA) in BAEC lysates. It counts as cell-based, Bovine. To be noted: FIGS. 1C and 1D. How it is done: Caspase-3 activity was measured with Ac-DEVD-pNA as a substrate using the caspase-3 Colorimetric Activity Assay Kit (Chemicon). Specifically, BAECs were grown to confluency in 20% FBS-DMEM and then starved for more than 8 hours. The cells were treated with various apoptotic agents (100 μM ETO) and then lysed. The cell lysates were reacted in a reaction buffer containing 236 μM Ac-DEVD-pNA with or without specific inhibitors (0.1 μM Ac-DEVD-CHO) in 96-well plates at 37° C. for 2 hours. Then, the caspase-3 activity was determined by measuring the absorbance of the reactions at 405 nm using a microplate reader (Bio-Rad, Model 550).
as §1

For the next test, the system named is eNOS. In words: Western blotting of p-eNOS in BAECs. It counts as cell-based, Bovine. The settings on record: 1 pM pinosylvin, 0 to 60 minutes, serum-depleted BAECs, FIG. 2. How it is done:
as §1

For test [3], the system named is Bovine aortic endothelial cells (BAECs). In words: Endothelial cell migration (wound scrape). To be noted: 1 pM pinosylvin, FIG. 4A. Format: cell-based. The procedure: Confluent BAECs were treated twice with 2 mM thymidine for 18 hours and wounded with a pipette tip. Then, the cells were incubated in the starvation media for 20 hours with increasing amounts of pinosylvin: 1) no pinosylvin, 2) 1 pM pinosylvin, or 3) 1 pM pinosylvin with 2.5 mM L-NAME, in DMEM, respectively. The migrated cells were observed under a microscope and quantified by counting the number of the migrated cells in the wound area.

A further test concerns Akt. The experiment in a line: Western blotting of p-Akt in BAECs. Format: cell-based, Bovine. The settings on record: 1 pM pinosylvin, 0 to 60 minutes, serum-depleted BAECs, FIG. 2. The procedure: as §1
Test [4] relates to Bovine aortic endothelial cells (BAECs). In words: Endothelial cell proliferation (microscopy, WST-1 assay). Format: cell-based. The procedure: as §2
Cell proliferation was measured using a cell viability assay kit (Daeil Lab Service Co., LTD., Seoul, Korea). Specifically, confluent BAECs were serum-starved for 16 hours, and then various concentrations of pinosylvin or 20% serum were added and incubated. The cells were washed more than twice with PBS and reacted with the WST-1 reagent. The live cells were then measured at 450 nm using an ELISA microplate reader (Bio-Rad, Model 550).
On the technique in general: Tetrazolium dyes change colour on reduction, which living cells bring about.

For the next test, the system named is p38 MAP kinase. In words: Western blotting of p-p38 MAP kinase in BAECs. It counts as cell-based, Bovine. To be noted: 1 pM pinosylvin, 0 to 60 minutes, serum-depleted BAECs, FIG. 2. How it is done:
as §1

The subject of a further test is ERK. In words: Western blotting of p-ERK in BAECs. The settings on record: 1 pM pinosylvin, 0 to 60 minutes, serum-depleted BAECs, FIG. 2. It counts as cell-based, Bovine. How it is done: as §1
Test [5] has as its system Bovine aortic endothelial cells (BAECs). In words: Etoposide-induced apoptosis, Hoechst 33258 staining of fragmented nuclei. Format: cell-based. The settings on record: FIG. 1B. The procedure:
as §2
For the apoptotic analysis, the confluent cells were incubated in 0.5% FBS-DMEM containing 0 μM or 100 μM etoposide (ETO, Sigma) or varying amounts of pinosylvin for 36 hours. […]
For Hoechst staining, the confluent cells were incubated with 0.5% FBS-DMEM containing 100 μM ETO without any compound (vehicle control) for 36 hours. […] After incubation, the stained cells were thoroughly washed with PBS and the nuclei were observed under a fluorescence microscope (Zeiss Autoplan 2) to confirm the occurrence of apoptosis.

With `Oc1cc(O)cc(/C=C/c2ccccc2)c1` [pinosylvin, 5-[(E)-2-phenylethenyl]benzene-1,3-diol], the JNK phosphorylation result with JNK is listed as “remained largely unchanged”. Besides, the “starvation-induced apoptosis, apoptotic cells counted per visual field” value in test [1] (1 pM to 10 μM of pinosylvin, FIG. 1A bottom panel) is “inhibited”. For the same compound, in [1] (BAECs serum-starved for 72 hours, low dose of pinosylvin, FIG. 1A top panel), the “serum starvation-induced apoptosis (round and shrunken cells)” value was “prevent serum starvation-induced apoptosis”. In addition, the “effect of tube formation by pinosylvin when treated concurrently with L-NAME” value in test [2] (1 pM pinosylvin with 2.5 mM L-NAME (eNOS inhibitor)) was “reduced”. Moreover, the “tube formation compared to the control group” value in [2] (1 pM pinosylvin) is reported as “significantly increase tube formation”. The “ETO-induced caspase-3 activation” value with caspase-3 (1 pM pinosylvin, 100 μM ETO) is “inhibited”. Besides, the “starvation-induced caspase-3 activation” value with caspase-3 (1 pM pinosylvin, serum-depleted cells) is “inhibited”. Further, in the test with eNOS, the eNOS phosphorylation result is “substantially promoted”. Further, the cell migration entry in test [3] is “significantly promote cell migration”. Also, the Akt phosphorylation result with Akt is on record as “substantially promoted”. Further, in test [4] (1 pM pinosylvin, thirty percent confluent BAECs, FIG. 3A), the “number of cells compared with untreated cells (microscope)” value is listed as “increased”. Besides, the “cell proliferation, WST-1 assay” value in test [4] (DMEM with none or 20% serum, 24 hours, FIG. 3B) is given as “promote cell proliferation regardless of the presence of serum”. Moreover, in the test with p38 MAP kinase, the p38 phosphorylation result is listed as “remained largely unchanged”. Moreover, the ERK phosphorylation entry in the test on ERK was “remained largely unchanged”. Further, the “fragmentation of the nuclei (Hoechst 33258 staining), ETO-induced” value in test [5] (1 pM pinosylvin together with 100 μM ETO) is given as “markedly reduced level”.

`COc1cc([C@@H]2c3cc4c(cc3[C@@H](O[C@@H]3O[C@@H]5CO[C@@H](C)O[C@H]5[C@H](O)[C@H]3O)[C@H]3COC(=O)[C@H]23)OCO4)cc(OC)c1O` [ETO, etoposide, reference compound]: the caspase-3 activation result in the test with caspase-3 (100 μM ETO) was “activate caspase-3”. Further, the “fragmentation of the nuclei (Hoechst 33258 staining)” value in [5] (cells treated with 100 μM ETO alone) is given as “detected”.
